Data from PubChem BioAssay AID2060615 (Molecular Pharmacology Branch, DTP, NCI, 2025).

Tested on: 496974-208-R-J2-PDC complex spheroids, growth % test/control
Assay: Anticancer human tumor 496974-208-R-J2-PDC patient-derived pancreatic carcinoma cell line growth inhibition [CLK]
Settings: for IC50: curve of first compound; for viability, T/C: stronger effect = lower value
Method in brief: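 Patient-derived tumor cells grown as complex spheroids with HUVEC endothelial cells and mesenchymal stem cells, treated with drug combinations. Concentrations descend in half-log steps from near clinical Cmax, or from 10 microM if Cmax unknown.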
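Further: spheroids exposed to the drugs for 7 days before readout.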
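Wherever viability, T/C is given: 100% = DMSO vehicle control wells.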

`C=CC(=O)Nc1cc(Nc2nccc(-c3cn(C)c4ccccc34)n2)c(OC)cc1N(C)CCN(C)C` + CNC(=O)c1ccc(Nc2nc(OC3CCCC3)c3c(-c4ccc5nc(C)oc5c4)c[nH]c3n2)c(OC)c1 was tested, and the IC50 (second compound 0.0316 µM) was over 300 nM, the IC50 (second compound 0.1 µM) was over 300 nM and the IC50 (second compound 0.316 µM) was over 300 nM. The IC50 (second compound 1 µM) was 152 nM, the IC50 (second compound 3.16 µM) was 122 nM and the IC50 (second compound 10 µM) was 75.8 nM. For the same molecule, the viability, T/C (second compound 0.0316 µM, first compound 0.000949 µM) was 108%, the viability, T/C (second compound 0.0316 µM, first compound 0.003 µM) was 99.3% and the viability, T/C (second compound 0.0316 µM, first compound 0.00949 µM) was 88%. The viability, T/C (second compound 0.0316 µM, first compound 0.03 µM) was 96.5%, the viability, T/C (second compound 0.0316 µM, first compound 0.0949 µM) was 90.2% and the viability, T/C (second compound 0.0316 µM, first compound 0.3 µM) was 71.7%. It also gave a viability, T/C (second compound 0.1 µM, first compound 0.000949 µM) of 80.6%, a viability, T/C (second compound 0.1 µM, first compound 0.003 µM) of 89.5% and a viability, T/C (second compound 0.1 µM, first compound 0.00949 µM) of 67.1%. For the same molecule, the viability, T/C (second compound 0.1 µM, first compound 0.03 µM) was 72.8%, the viability, T/C (second compound 0.1 µM, first compound 0.0949 µM) was 70% and the viability, T/C (second compound 0.1 µM, first compound 0.3 µM) was 53.1%. The viability, T/C (second compound 0.316 µM, first compound 0.000949 µM) was 81.1%, the viability, T/C (second compound 0.316 µM, first compound 0.003 µM) was 77.4% and the viability, T/C (second compound 0.316 µM, first compound 0.00949 µM) was 85.2%. It also gave a viability, T/C (second compound 0.316 µM, first compound 0.03 µM) of 74.5%, a viability, T/C (second compound 0.316 µM, first compound 0.0949 µM) of 60.4% and a viability, T/C (second compound 0.316 µM, first compound 0.3 µM) of 51.2%. For the same molecule, the viability, T/C (second compound 1 µM, first compound 0.000949 µM) was 76.7%, the viability, T/C (second compound 1 µM, first compound 0.003 µM) was 70.2% and the viability, T/C (second compound 1 µM, first compound 0.00949 µM) was 66%. It also gave a viability, T/C (second compound 1 µM, first compound 0.03 µM) of 65.1%, a viability, T/C (second compound 1 µM, first compound 0.0949 µM) of 57.2% and a viability, T/C (second compound 1 µM, first compound 0.3 µM) of 40.9%. For the same molecule, the viability, T/C (second compound 3.16 µM, first compound 0.000949 µM) was 63.4%, the viability, T/C (second compound 3.16 µM, first compound 0.003 µM) was 64.1% and the viability, T/C (second compound 3.16 µM, first compound 0.00949 µM) was 65.6%. The viability, T/C (second compound 3.16 µM, first compound 0.03 µM) was 57.8%, the viability, T/C (second compound 3.16 µM, first compound 0.0949 µM) was 51.7% and the viability, T/C (second compound 3.16 µM, first compound 0.3 µM) was 41.1%. It also gave a viability, T/C (second compound 10 µM, first compound 0.000949 µM) of 60.3%, a viability, T/C (second compound 10 µM, first compound 0.003 µM) of 57.9% and a viability, T/C (second compound 10 µM, first compound 0.00949 µM) of 57.5%. The viability, T/C (second compound 10 µM, first compound 0.03 µM) was 51.3%, the viability, T/C (second compound 10 µM, first compound 0.0949 µM) was 51.4% and the viability, T/C (second compound 10 µM, first compound 0.3 µM) was 30.4%.
